PubChem BioAssay (NCI)
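Cultured in 96-well plates, cells were exposed to test compound for 48 hours across five concentrations. At the TGI there is no net growth.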

What was measured:
Experiment in all cases: NCI-60 cell line screen, 48 h
786-0 renal = system: 786-0 renal
A498 renal = system: A498 renal
A549 NSCLC = system: A549 NSCLC
BT-549 breast = system: BT-549 breast
CAKI-1 renal = system: CAKI-1 renal
CCRF-CEM leukemia = system: CCRF-CEM leukemia
COLO 205 colon = system: COLO 205 colon
DU-145 prostate = system: DU-145 prostate
EKVX NSCLC = system: EKVX NSCLC
HCC-2998 colon = system: HCC-2998 colon
HCT-116 colon = system: HCT-116 colon
HCT-15 colon = system: HCT-15 colon
HL-60(TB) leukemia = system: HL-60(TB) leukemia
HS 578T breast = system: HS 578T breast
HT29 colon = system: HT29 colon
K-562 leukemia = system: K-562 leukemia
KM12 colon = system: KM12 colon
LOX IMVI melanoma = system: LOX IMVI melanoma
M14 melanoma = system: M14 melanoma
MALME-3M melanoma = system: MALME-3M melanoma
MCF7 breast = system: MCF7 breast
MDA-MB-231 breast = system: MDA-MB-231 breast
MDA-MB-435 = system: MDA-MB-435
MDA-N = system: MDA-N
MOLT-4 leukemia = system: MOLT-4 leukemia
NCI-H226 lung = system: NCI-H226 lung
NCI-H23 lung = system: NCI-H23 lung
NCI-H460 lung = system: NCI-H460 lung
NCI-H522 lung = system: NCI-H522 lung
NCI/ADR-RES ovarian = system: NCI/ADR-RES ovarian
OVCAR-3 ovarian = system: OVCAR-3 ovarian
OVCAR-4 ovarian = system: OVCAR-4 ovarian
OVCAR-5 ovarian = system: OVCAR-5 ovarian
OVCAR-8 ovarian = system: OVCAR-8 ovarian
PC-3 prostate = system: PC-3 prostate
RPMI-8226 leukemia = system: RPMI-8226 leukemia
RXF 393 renal = system: RXF 393 renal
SF-268 CNS = system: SF-268 CNS
SF-539 CNS = system: SF-539 CNS
SK-MEL-2 melanoma = system: SK-MEL-2 melanoma
SK-MEL-28 melanoma = system: SK-MEL-28 melanoma
SK-MEL-5 melanoma = system: SK-MEL-5 melanoma
SK-OV-3 ovarian = system: SK-OV-3 ovarian
SN12C renal = system: SN12C renal
SNB-19 CNS = system: SNB-19 CNS
SNB-75 CNS = system: SNB-75 CNS
SR leukemia = system: SR leukemia
SW-620 colon = system: SW-620 colon
T-47D breast = system: T-47D breast
TK-10 renal = system: TK-10 renal
U251 CNS = system: U251 CNS
UACC-257 melanoma = system: UACC-257 melanoma
UACC-62 melanoma = system: UACC-62 melanoma
UO-31 renal = system: UO-31 renal
ACHN renal = system: ACHN renal
HOP-62 NSCLC = system: HOP-62 NSCLC
HOP-92 NSCLC = system: HOP-92 NSCLC
IGROV1 ovarian = system: IGROV1 ovarian
SF-295 CNS = system: SF-295 CNS

Question: What does the source list for O=c1[nH][nH]c(=O)n1Cc1ccccc1?
Answer: TGI (786-0 renal): > 100 µM; TGI (A498 renal): > 100 µM; TGI (A549 NSCLC): > 100 µM; TGI (BT-549 breast): > 100 µM; TGI (CAKI-1 renal): > 100 µM; TGI (CCRF-CEM leukemia): > 100 µM; TGI (COLO 205 colon): > 100 µM; TGI (DU-145 prostate): > 100 µM; TGI (EKVX NSCLC): > 100 µM; TGI (HCC-2998 colon): > 100 µM; TGI (HCT-116 colon): > 100 µM; TGI (HCT-15 colon): > 100 µM; TGI (HL-60(TB) leukemia): > 100 µM; TGI (HS 578T breast): > 100 µM; TGI (HT29 colon): > 100 µM; TGI (K-562 leukemia): > 100 µM; TGI (KM12 colon): > 100 µM; TGI (LOX IMVI melanoma): > 100 µM; TGI (M14 melanoma): > 100 µM; TGI (MALME-3M melanoma): > 100 µM; TGI (MCF7 breast): > 100 µM; TGI (MDA-MB-231 breast): > 100 µM; TGI (MDA-MB-435): > 100 µM; TGI (MDA-N): > 100 µM; TGI (MOLT-4 leukemia): > 100 µM; TGI (NCI-H226 lung): > 100 µM; TGI (NCI-H23 lung): > 100 µM; TGI (NCI-H460 lung): > 100 µM; TGI (NCI-H522 lung): > 100 µM; TGI (NCI/ADR-RES ovarian): > 100 µM; TGI (OVCAR-3 ovarian): > 100 µM; TGI (OVCAR-4 ovarian): > 100 µM; TGI (OVCAR-5 ovarian): > 100 µM; TGI (OVCAR-8 ovarian): > 100 µM; TGI (PC-3 prostate): > 100 µM; TGI (RPMI-8226 leukemia): > 100 µM; TGI (RXF 393 renal): > 100 µM; TGI (SF-268 CNS): > 100 µM; TGI (SF-539 CNS): > 100 µM; TGI (SK-MEL-2 melanoma): > 100 µM; TGI (SK-MEL-28 melanoma): > 100 µM; TGI (SK-MEL-5 melanoma): > 100 µM; TGI (SK-OV-3 ovarian): > 100 µM; TGI (SN12C renal): > 100 µM; TGI (SNB-19 CNS): > 100 µM; TGI (SNB-75 CNS): > 100 µM; TGI (SR leukemia): > 100 µM; TGI (SW-620 colon): > 100 µM; TGI (T-47D breast): > 100 µM; TGI (TK-10 renal): > 100 µM; TGI (U251 CNS): > 100 µM; TGI (UACC-257 melanoma): > 100 µM; TGI (UACC-62 melanoma): > 100 µM; TGI (UO-31 renal): > 100 µM

Question: With O=C(c1ccccc1)c1ccc(N2C(=O)/C(=C/c3ccccc3S)N=C2c2ccccc2)c(N2C(=O)/C(=C/c3ccccc3S)N=C2c2ccccc2)c1 as the compound, how does the TGI (786-0 renal) read?
Answer: > 100 µM

Question: And the TGI (A498 renal)?
Answer: > 100 µM

Question: What about the TGI (A549 NSCLC) of the same compound?
Answer: > 100 µM

Question: What about the TGI (ACHN renal) of the same compound?
Answer: > 100 µM

Question: And the TGI (BT-549 breast)?
Answer: > 100 µM

Question: And the TGI (CAKI-1 renal)?
Answer: > 100 µM

Question: What about the TGI (CCRF-CEM leukemia) of the same compound?
Answer: > 100 µM

Question: And the TGI (COLO 205 colon)?
Answer: > 100 µM

Question: And the TGI (DU-145 prostate)?
Answer: > 100 µM

Question: What about the TGI (EKVX NSCLC) of the same compound?
Answer: > 100 µM

Question: What about the TGI (HCC-2998 colon) of the same compound?
Answer: > 100 µM

Question: And the TGI (HCT-116 colon)?
Answer: > 100 µM

Question: What about the TGI (HCT-15 colon) of the same compound?
Answer: > 100 µM

Question: And the TGI (HL-60(TB) leukemia)?
Answer: > 100 µM

Question: And the TGI (HOP-62 NSCLC)?
Answer: > 100 µM

Question: What about the TGI (HOP-92 NSCLC) of the same compound?
Answer: > 100 µM

Question: And the TGI (HS 578T breast)?
Answer: > 100 µM

Question: What about the TGI (HT29 colon) of the same compound?
Answer: > 100 µM

Question: And the TGI (IGROV1 ovarian)?
Answer: > 100 µM

Question: And the TGI (K-562 leukemia)?
Answer: > 100 µM

Question: And the TGI (KM12 colon)?
Answer: > 100 µM

Question: What about the TGI (LOX IMVI melanoma) of the same compound?
Answer: 62.9 µM

Question: What about the TGI (M14 melanoma) of the same compound?
Answer: > 100 µM

Question: What about the TGI (MCF7 breast) of the same compound?
Answer: > 100 µM

Question: What about the TGI (MDA-MB-231 breast) of the same compound?
Answer: > 100 µM

Question: What about the TGI (MDA-MB-435) of the same compound?
Answer: 46.1 µM

Question: What about the TGI (MDA-N) of the same compound?
Answer: > 100 µM

Question: What about the TGI (MOLT-4 leukemia) of the same compound?
Answer: 56.6 µM

Question: And the TGI (NCI-H460 lung)?
Answer: > 100 µM

Question: And the TGI (NCI/ADR-RES ovarian)?
Answer: > 100 µM

Question: And the TGI (OVCAR-3 ovarian)?
Answer: 51.2 µM

Question: And the TGI (OVCAR-4 ovarian)?
Answer: > 100 µM

Question: And the TGI (OVCAR-5 ovarian)?
Answer: > 100 µM

Question: And the TGI (OVCAR-8 ovarian)?
Answer: 88.6 µM

Question: What about the TGI (PC-3 prostate) of the same compound?
Answer: > 100 µM

Question: And the TGI (RPMI-8226 leukemia)?
Answer: 53.1 µM

Question: And the TGI (SF-268 CNS)?
Answer: > 100 µM

Question: What about the TGI (SF-295 CNS) of the same compound?
Answer: > 100 µM

Question: And the TGI (SF-539 CNS)?
Answer: 40.3 µM

Question: And the TGI (SK-MEL-2 melanoma)?
Answer: 57.3 µM

Question: What about the TGI (SK-MEL-28 melanoma) of the same compound?
Answer: > 100 µM

Question: And the TGI (SK-MEL-5 melanoma)?
Answer: 87.6 µM

Question: What about the TGI (SK-OV-3 ovarian) of the same compound?
Answer: > 100 µM

Question: What about the TGI (SN12C renal) of the same compound?
Answer: > 100 µM

Question: And the TGI (SNB-19 CNS)?
Answer: > 100 µM

Question: And the TGI (SNB-75 CNS)?
Answer: 65.8 µM

Question: What about the TGI (SR leukemia) of the same compound?
Answer: > 100 µM

Question: What about the TGI (SW-620 colon) of the same compound?
Answer: > 100 µM

Question: What about the TGI (T-47D breast) of the same compound?
Answer: > 100 µM

Question: What about the TGI (TK-10 renal) of the same compound?
Answer: > 100 µM

Question: And the TGI (U251 CNS)?
Answer: > 100 µM

Question: What about the TGI (UACC-257 melanoma) of the same compound?
Answer: > 100 µM

Question: What about the TGI (UACC-62 melanoma) of the same compound?
Answer: > 100 µM

Question: What about the TGI (UO-31 renal) of the same compound?
Answer: > 100 µM
